Results from ChEMBL document CHEMBL2150864 (Eur J Med Chem, 2012).

How the values were obtained:
[1] = Metabolic stability in Wistar rat plasma at 39 MBq, iv after 60 mins; assay type: ADME, organism-based; details: read-out: Stability
[2] = target: Vascular endothelial growth factor receptor 2 (Homo sapiens, UniProt P35968); assay: Binding affinity to DNA-tagged VEGFR2 by qPCR based competitive binding assay
[3] = Cytotoxicity against VEGFR expressing HAEC after 72 hrs by MTT assay; assay type: functional, Homo sapiens
HT-29 = assay: Cytotoxicity against VEGFR expressing human HT-29 cells after 72 hrs by MTT assay; assay type: functional, cell-based; details: HT-29, 72 h

Vascular endothelial growth factor receptor 2, sequence (P35968 whole entry): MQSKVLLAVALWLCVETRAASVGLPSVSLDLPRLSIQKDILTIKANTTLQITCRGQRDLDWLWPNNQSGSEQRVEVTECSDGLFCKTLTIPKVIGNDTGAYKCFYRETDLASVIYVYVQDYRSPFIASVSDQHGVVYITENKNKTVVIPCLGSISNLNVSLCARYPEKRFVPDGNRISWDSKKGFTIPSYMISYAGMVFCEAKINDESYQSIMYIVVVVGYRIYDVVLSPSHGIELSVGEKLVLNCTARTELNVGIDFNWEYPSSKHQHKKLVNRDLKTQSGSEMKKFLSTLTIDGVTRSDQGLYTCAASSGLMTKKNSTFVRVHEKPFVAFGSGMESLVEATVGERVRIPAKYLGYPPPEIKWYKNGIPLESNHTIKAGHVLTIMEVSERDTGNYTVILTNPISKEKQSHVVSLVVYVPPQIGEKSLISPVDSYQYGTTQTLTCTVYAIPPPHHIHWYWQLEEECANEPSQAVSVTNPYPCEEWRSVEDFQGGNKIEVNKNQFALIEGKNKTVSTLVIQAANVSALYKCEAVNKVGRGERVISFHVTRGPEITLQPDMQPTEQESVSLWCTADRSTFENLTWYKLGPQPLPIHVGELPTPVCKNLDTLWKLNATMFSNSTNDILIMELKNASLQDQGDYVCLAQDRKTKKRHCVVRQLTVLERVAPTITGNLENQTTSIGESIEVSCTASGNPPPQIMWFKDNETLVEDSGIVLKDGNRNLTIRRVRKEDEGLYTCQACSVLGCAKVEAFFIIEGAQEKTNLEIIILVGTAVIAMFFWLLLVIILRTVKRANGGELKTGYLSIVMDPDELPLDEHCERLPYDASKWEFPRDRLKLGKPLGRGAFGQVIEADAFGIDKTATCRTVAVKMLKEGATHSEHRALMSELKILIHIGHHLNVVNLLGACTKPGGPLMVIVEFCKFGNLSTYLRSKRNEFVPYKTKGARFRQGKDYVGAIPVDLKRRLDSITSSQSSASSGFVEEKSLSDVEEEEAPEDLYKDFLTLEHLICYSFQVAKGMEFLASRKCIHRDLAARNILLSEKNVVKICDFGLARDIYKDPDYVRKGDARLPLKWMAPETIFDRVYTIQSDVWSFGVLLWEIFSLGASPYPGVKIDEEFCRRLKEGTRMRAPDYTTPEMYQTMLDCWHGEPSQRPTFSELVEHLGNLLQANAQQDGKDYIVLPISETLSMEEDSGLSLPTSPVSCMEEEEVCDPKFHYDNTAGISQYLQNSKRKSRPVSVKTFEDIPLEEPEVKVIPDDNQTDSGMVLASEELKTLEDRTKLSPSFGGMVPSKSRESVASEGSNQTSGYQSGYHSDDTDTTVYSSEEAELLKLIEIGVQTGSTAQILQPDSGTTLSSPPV

Row | remaining at 1 h [1] [%] | Kd [2] [µM] | Structure (SMILES) | IC50 [3] [µM] | IC50 (HT-29) [µM]
1 | > 70 |  | CCN(CC)CCNC(=O)c1c(C)[nH]c(/C=C2\C(=O)Nc3ccc(O[11CH3])cc32)c1C |  | 
2 |  | 0.02 | CCN(CC)CCNC(=O)c1c(C)[nH]c(/C=C2\C(=O)Nc3ccc(OC)cc32)c1C | 54.8 | 7.88
3 |  |  | CCN(CC)CCNC(=O)c1c(C)[nH]c(/C=C2\C(=O)Nc3ccc(F)cc32)c1C [SUNITINIB] | 0.1 | 
